Source: paper PMC12647645, “Structural interactions of BWC0977 with Klebsiella pneumoniae topoisomerase IV and biochemical basis of its broad-spectrum activity” (Communications Biology, 2025)
Converted amounts (≈) assume the structure as drawn. “And” between values parts separate entries of the source, which are not always exact repeats. Identical values can stand only once. Like-named read-outs stand apart in the source and are kept apart here.

Assays:
[1] = biological target: Human topo IIß (Homo sapiens, UniProt Q02880); experiment: Human topo IIß decatenation assay; format: biochemical
Procedure: Human topo IIα (0.9 nM) and topo IIß (2.2 nM) decatenation assays were performed following the same protocol used for bacterial topoisomerase IV decatenation assays. The assay buffer was made of 50 mM Tris. HCl (pH 7.5), 125 mM NaCl, 10 mM MgCl2, 5 mM DTT, and 100 μg/mL albumin.

[2] = biological target: P. aeruginosa gyrase (Pseudomonas aeruginosa, UniProt P48372+Q9I7C2); experiment: biochemical; conditions: for Gyrase supercoiling inhibition response: P. aeruginosa gyrase
[3] = biological target: S. aureus gyrase (Staphylococcus aureus, UniProt P0A0K8+P20831); experiment: biochemical
[4] = biological target: E. coli GyrA S83L mutant gyrase (Escherichia coli, UniProt P0AES4+P0AES6, S83L); experiment: biochemical; format: biochemical; conditions: for Gyrase supercoiling inhibition response: GyrA S83L gyrase
[5] = system: E. coli MG1655 GyrA D82N, ParC D79N; experiment: microbe, parasite or virus in culture; format: cell-based; conditions: Escherichia coli
[6] = system: E. coli MG1655 GyrA R121K, ParC WT; experiment: microbe, parasite or virus in culture; format: cell-based; conditions: Escherichia coli
[7] = system: S. aureus ATCC 29213; experiment: MIC broth microdilution; format: cell-based; conditions: Staphylococcus aureus, ATCC29213
[8] = system: E. coli ATCC 25922; experiment: MIC broth microdilution; format: cell-based; conditions: Escherichia coli, ATCC25922
[9] = system: A. baumannii ATCC 19606; experiment: MIC broth microdilution; format: cell-based; conditions: Acinetobacter baumannii
[10] = system: P. aeruginosa ATCC 27853; experiment: MIC broth microdilution; format: cell-based; conditions: Pseudomonas aeruginosa, ATCC27853
[11] = system: A. baumannii BAA 2885; experiment: microbe, parasite or virus in culture; format: cell-based; conditions: Acinetobacter baumannii, BAA2885
[12] = system: P. aeruginosa BAA 2794; experiment: microbe, parasite or virus in culture; format: cell-based; conditions: Pseudomonas aeruginosa, BAA2794
[13] = system: A. baumannii ATCC 19606 resistant mutant colonies (mutant 1-5); experiment: microbe, parasite or virus in culture; format: cell-based; conditions: Acinetobacter baumannii
[14] = system: A. baumannii ATCC 19606; experiment: In vitro spontaneous resistance frequency; format: cell-based
Procedure: (§1) Spontaneous resistance frequencies to BWC0977 were evaluated in E. coli ATCC 25922, P. aeruginosa ATCC 27853, and A. baumannii ATCC 19606. Mid-logarithmic phase cultures (~10^9 CFU/mL) were plated onto Luria-Bertani agar containing BWC0977 at 4×, 8×, and 16× the respective MICs. Plates were incubated at 37 °C for 24–36 h, and resistance frequencies were estimated by counting colony-forming units (CFUs) on the drug-containing plates. MICs of the isolated colonies were determined, and the gyrA, gyrB, parC, and parE genes were sequenced to assess for target-site mutations.

[15] = system: E. coli ATCC 25922; experiment: In vitro spontaneous resistance frequency; format: cell-based
Procedure: as §1

[16] = system: P. aeruginosa ATCC 27853; conditions: 4× MIC
Procedure: as §1

[17] = system: E. coli tolC strain; experiment: MIC, efflux-deficient strain; format: cell-based
[18] = system: K. pneumoniae; conditions: ref 6 (Hameed P et al., 2024); cited from earlier work
[19] = system: A. baumannii; design: method as in ref 6 (Hameed P et al., 2024); conditions: ref 6 (Hameed P et al., 2024); cited from earlier work
[20] = system: multidrug-resistant (MDR) Gram-negative bacteria, Gram-positive bacteria, anaerobes, and biothreat pathogens; conditions: diverse global panel; cited from earlier work
[21] = system: P. aeruginosa ATCC 27853; conditions: >4× MIC; cited from earlier work

Cn1c(=O)ccc2ccc(F)c(CCNC[C@H]3CN(c4cnc5c(n4)NC(=O)CO5)C(=O)O3)c21 [BWC0977]
IC50 [1]: > 200000 nM
IC50 [2]: 9.4 nM
Gyrase supercoiling inhibition response ([2]; compound 0.0005 μM, source data Fig 2B, listed as 977, 0.0005 µM): 6.77
Gyrase supercoiling inhibition response ([2]; compound 0.001 μM, source data Fig 2B, listed as 977, 0.001 µM): 9.59
Gyrase supercoiling inhibition response ([2]; compound 0.004 μM, source data Fig 2B, listed as 977, 0.004 µM): 27.41
Gyrase supercoiling inhibition response ([2]; compound 0.012 μM, source data Fig 2B, listed as 977, 0.012 µM): 48.08
Gyrase supercoiling inhibition response ([2]; compound 0.037 μM, source data Fig 2B, listed as 977, 0.037 µM): 69.93
Gyrase supercoiling inhibition response ([2]; compound 0.111 μM, source data Fig 2B, listed as 977, 0.111 µM): 87.28
Gyrase supercoiling inhibition response ([2]; compound 0.333 μM, source data Fig 2B, listed as 977, 0.333 µM): 93.63
Gyrase supercoiling inhibition response ([2]; compound 1 μM, source data Fig 2B, listed as 977, 1 µM): 99.48
Gyrase supercoiling inhibition response ([2]; compound 3 μM, source data Fig 2B, listed as 977, 3 µM): 100.23
inhibition at 0.0005 µM ([2]; read-out: Gyrase supercoiling inhibition response, P. aeruginosa gyrase, compound 0.0005 μM, source data Fig 2B): 12.6%
inhibition at 0.001 µM ([2]; read-out: Gyrase supercoiling inhibition response, P. aeruginosa gyrase, compound 0.001 μM, source data Fig 2B): 16.5%
inhibition at 0.004 µM ([2]; read-out: Gyrase supercoiling inhibition response, P. aeruginosa gyrase, compound 0.004 μM, source data Fig 2B): 32.4%
inhibition at 0.012 µM ([2]; read-out: Gyrase supercoiling inhibition response, P. aeruginosa gyrase, compound 0.012 μM, source data Fig 2B): 61.3%
inhibition at 0.037 µM ([2]; read-out: Gyrase supercoiling inhibition response, P. aeruginosa gyrase, compound 0.037 μM, source data Fig 2B): 85.1%
inhibition at 0.111 µM ([2]; read-out: Gyrase supercoiling inhibition response, P. aeruginosa gyrase, compound 0.111 μM, source data Fig 2B): 97.4%
inhibition at 0.333 µM ([2]; read-out: Gyrase supercoiling inhibition response, P. aeruginosa gyrase, compound 0.333 μM, source data Fig 2B): 99%
inhibition at 1 µM ([2]; read-out: Gyrase supercoiling inhibition response, P. aeruginosa gyrase, compound 1 μM, source data Fig 2B): 99.8%
inhibition at 3 µM ([2]; read-out: Gyrase supercoiling inhibition response, P. aeruginosa gyrase, compound 3 μM, source data Fig 2B): 103%
Gyrase supercoiling inhibition response ([3]; S. aureus gyrase, compound 0.0002 μM, source data Fig 2C, listed as 977, 0.0002 µM): 1.69 and 1.99
inhibition at 0.0002 µM ([3]; S. aureus gyrase, compound 0.0002 μM, source data Fig 2C, read-out: Gyrase supercoiling inhibition response): 2.89%
Gyrase supercoiling inhibition response ([3]; S. aureus gyrase, compound 0.001 μM, source data Fig 2C, listed as 977, 0.001 µM): 21.39 and 19.98
inhibition at 0.001 µM ([3]; S. aureus gyrase, compound 0.001 μM, source data Fig 2C, read-out: Gyrase supercoiling inhibition response): 26.9%
Gyrase supercoiling inhibition response ([3]; S. aureus gyrase, compound 0.004 μM, source data Fig 2C, listed as 977, 0.004 µM): 39.52 and 42.6
inhibition at 0.004 µM ([3]; S. aureus gyrase, compound 0.004 μM, source data Fig 2C, read-out: Gyrase supercoiling inhibition response): 46.8%
Gyrase supercoiling inhibition response ([3]; S. aureus gyrase, compound 0.012 μM, source data Fig 2C, listed as 977, 0.012 µM): 60.4 and 63.65
inhibition at 0.012 µM ([3]; S. aureus gyrase, compound 0.012 μM, source data Fig 2C, read-out: Gyrase supercoiling inhibition response): 57.6%
Gyrase supercoiling inhibition response ([3]; S. aureus gyrase, compound 0.037 μM, source data Fig 2C, listed as 977, 0.037 µM): 62.46 and 64.07
inhibition at 0.037 µM ([3]; S. aureus gyrase, compound 0.037 μM, source data Fig 2C, read-out: Gyrase supercoiling inhibition response): 66.3%
Gyrase supercoiling inhibition response ([3]; S. aureus gyrase, compound 0.111 μM, source data Fig 2C, listed as 977, 0.111 µM): 73.28 and 76.49
inhibition at 0.111 µM ([3]; S. aureus gyrase, compound 0.111 μM, source data Fig 2C, read-out: Gyrase supercoiling inhibition response): 70.2%
Gyrase supercoiling inhibition response ([3]; S. aureus gyrase, compound 0.333 μM, source data Fig 2C, listed as 977, 0.333 µM): 87.57 and 81.68
inhibition at 0.333 µM ([3]; S. aureus gyrase, compound 0.333 μM, source data Fig 2C, read-out: Gyrase supercoiling inhibition response): 84%
Gyrase supercoiling inhibition response ([3]; S. aureus gyrase, compound 1 μM, source data Fig 2C, listed as 977, 1 µM): 89.66 and 78.1
inhibition at 1 µM ([3]; S. aureus gyrase, compound 1 μM, source data Fig 2C, read-out: Gyrase supercoiling inhibition response): 91.1%
Gyrase supercoiling inhibition response ([3]; S. aureus gyrase, compound 3 μM, source data Fig 2C, listed as 977, 3 µM): 98.25 and 99.54
inhibition at 3 µM ([3]; S. aureus gyrase, compound 3 μM, source data Fig 2C, read-out: Gyrase supercoiling inhibition response): 94.8%
IC50 ([3]; Supplementary Fig 1G): 9 nM
IC50 ([4]; Fig. 6, read-out: IC50 S83L gyrase supercoiling): 3 nM
Gyrase supercoiling inhibition response ([4]; compound 0.0005 µM, source data Fig 6A, 0.0005 µM): 7.40
Gyrase supercoiling inhibition response ([4]; compound 0.0014 µM, source data Fig 6A, 0.0014 µM): 20.69
Gyrase supercoiling inhibition response ([4]; compound 0.0041 µM, source data Fig 6A, 0.0041 µM): 57.16
Gyrase supercoiling inhibition response ([4]; compound 0.012 µM, source data Fig 6A, 0.012 µM): 82.23
Gyrase supercoiling inhibition response ([4]; compound 0.037 µM, source data Fig 6A, 0.037 µM): 88.47
Gyrase supercoiling inhibition response ([4]; compound 0.111 µM, source data Fig 6A, 0.111 µM): 97.88
Gyrase supercoiling inhibition response ([4]; compound 0.333 µM, source data Fig 6A, 0.333 µM): 98.84
Gyrase supercoiling inhibition response ([4]; compound 1 µM, source data Fig 6A, 1 µM): 98.71
Gyrase supercoiling inhibition response ([4]; compound 3 µM, source data Fig 6A, 3 µM): 96.44
potency shift relative to WT ([4]; quinolone-resistant S83L vs WT): < 3 fold
inhibition at 0.0014 µM ([4]; read-out: Gyrase supercoiling inhibition response, GyrA S83L gyrase, compound 0.0014 µM, source data Fig 6A): 35%
inhibition at 0.0041 µM ([4]; read-out: Gyrase supercoiling inhibition response, GyrA S83L gyrase, compound 0.0041 µM, source data Fig 6A): 60.7%
inhibition at 0.012 µM ([4]; read-out: Gyrase supercoiling inhibition response, GyrA S83L gyrase, compound 0.012 µM, source data Fig 6A): 74.3%
inhibition at 0.037 µM ([4]; read-out: Gyrase supercoiling inhibition response, GyrA S83L gyrase, compound 0.037 µM, source data Fig 6A): 90.2%
inhibition at 0.111 µM ([4]; read-out: Gyrase supercoiling inhibition response, GyrA S83L gyrase, compound 0.111 µM, source data Fig 6A): 91%
inhibition at 0.333 µM ([4]; read-out: Gyrase supercoiling inhibition response, GyrA S83L gyrase, compound 0.333 µM, source data Fig 6A): 97.8%
inhibition at 1 µM ([4]; read-out: Gyrase supercoiling inhibition response, GyrA S83L gyrase, compound 1 µM, source data Fig 6A): 99.5%
inhibition at 3 µM ([4]; read-out: Gyrase supercoiling inhibition response, GyrA S83L gyrase, compound 3 µM, source data Fig 6A): 97.9%
MIC [5]: 7.5 mg/L (≈ 16 µM)
MIC [6]: 0.01 mg/L (≈ 0.0213 µM)
MIC [7]: 0.007 mg/L (≈ 0.0149 µM)
MIC [8]: 0.06 mg/L (≈ 0.128 µM)
MIC ([9]; ATCC19606): 0.125 mg/L (≈ 0.267 µM)
MIC90 ([9]; ATCC19606, read-out: MIC 90 in (μg/mL), A. baumannii ATCC 19606 (WT)): 0.15 µg/mL (≈ 0.32 µM)
MIC [10]: 0.125 mg/L (≈ 0.267 µM)
MIC [11]: 0.5 mg/L (≈ 1.07 µM)
MIC [12]: 0.125 mg/L (≈ 0.267 µM)
MIC90 ([13]; ATCC19606, read-out: MIC 90 in (μg/mL), resistant mutant colony 1): 0.6 µg/mL (≈ 1.28 µM)
MIC90 ([13]; ATCC19606, read-out: MIC 90 in (μg/mL), resistant mutant colony 2): 0.07 µg/mL (≈ 0.149 µM)
MIC90 ([13]; ATCC19606, read-out: MIC 90 in (μg/mL), resistant mutant colony 3): 0.07 µg/mL (≈ 0.149 µM)
MIC90 ([13]; ATCC19606, read-out: MIC 90 in (μg/mL), resistant mutant colony 4): 0.07 µg/mL (≈ 0.149 µM)
MIC90 ([13]; ATCC19606, read-out: MIC 90 in (μg/mL), resistant mutant colony 5): 0.3 µg/mL (≈ 0.64 µM)
number of resistant mutant colonies ([14]; 0.6 μg/mL (4× MIC)): five
resistance frequency ([14]; 4× MIC): less than 1 × 10^−9
MIC increase of resistant colonies ([14]; colonies selected at 4× MIC of the same compound): four-fold
resistance frequency ([15]; 4× MIC): less than 1 × 10^−9
sensitivity of ciprofloxacin-resistant mutants (GyrA S83L or D87Y) ([15]; mutants selected with ciprofloxacin 0.05 μg/mL): remained sensitive
resistance frequency [16]: less than 1 × 10^−9
difference in MICs between tolC strain and wild-type strain [17]: 10 fold
MIC ([17]; Escherichia coli): 0.001 mg/L (≈ 0.00213 µM)
MIC90 against diverse global isolates [18]: 2 mg/L (≈ 4.27 µM)
MIC90 against diverse global isolates [19]: 1 mg/L (≈ 2.13 µM)
minimum inhibitory concentration (MIC90) range [20]: 0.03 to 2 mg/L
resistant colonies on exposure [21]: no resistant colonies
